Assay results: patent US10738035B2, “Hepatitis B antiviral agents” (Enanta Pharmaceuticals, Inc., priority 2015, dated 2020)

Legend:
hepatitis B virus (HBV) = assay: HepAD38 antiviral assay (viral product accumulation, EC50); details: HePAD38, 120 h, read-out: HepAD38 EC50
Procedure: (§1) Briefly, cells are passaged upon attaining confluency in DMEM/F12 media in the presence of 10% FBS, Penn/Strep, 250 μg/mL G418, and 1 μg/ml tetracycline. Novel compounds are screened by first washing cells three times with PBS to remove tetracycline, and plating in 96 well plates at 35,000 cells/well. Compounds dissolved in DMSO are then diluted 1:200 into wells containing cells. Five days after compound addition, material is harvested for analysis.
On harvest day, virion DNA is obtained by lysing with Sidestep Lysis and Stabilization Buffer and then quantified via quantitative real time PCR. Commercially available ELISA kits are used to quantitate the viral proteins HBsAg (Alpco) or HbeAg (US Biological) by following the manufacturer's recommended protocol after diluting samples to match the linear range of their respective assays.

[1] = Compound toxicity, ATPLite (CC50); details: human, HepAD38 cells
Procedure: as §1
Compound toxicity is evaluated by seeding cells at 15,000 cells/well and treating with compound as described above.

SMILES | EC50 (hepatitis B virus (HBV)) [µM] | CC50 at 3 days [1] [µM]
CN(C)CCNC(=O)Nc1cc(C(=O)Nc2cc(F)c(F)c(F)c2)n(C)n1 [Example 25] | > 10 | > 30
Cn1nc(NC(=O)N2CC(O)C2)cc1C(=O)Nc1cc(F)c(F)c(F)c1 [Example 38] | < 1 | 10 to 30
Cn1nc(NC(=O)N2CCC(O)CC2)cc1C(=O)Nc1cccc(F)c1F [Example 45] | 1 to 10 | > 30
Cn1nc(NS(=O)(=O)C2CCC(O)CC2)cc1C(=O)Nc1cc(F)c(F)c(F)c1 (stereo not drawn) [Example 5] | < 1 | > 30
O=C(Nc1cc(F)c(F)c(F)c1)c1ccc(Cl)c(NC(=O)N2CCC(O)CC2)c1 [Example 7] | 1 to 10 | > 30
C=CCn1nc(NC(=O)N2CCC(O)CC2)cc1C(=O)Nc1cc(F)c(F)c(F)c1 [Example 33] | 1 to 10 | > 30
Cn1nc(NC(=O)Nc2cc(F)c(F)c(F)c2)cc1S(=O)(=O)N1CCC(O)CC1 [Example 2] | 1 to 10 | > 30
Cn1nc(NC(=O)N(CCO)CCO)cc1C(=O)Nc1cc(F)c(F)c(F)c1 [Example 27] | > 10 | > 30
Cn1nc(NC(=O)N2CCC(O)C2)cc1C(=O)Nc1cc(F)c(F)c(F)c1 (stereo not drawn) [Example 29] | 1 to 10 | < 10
Cn1nc(NC(=O)N2CCC(O)CC2)cc1C(=O)Nc1ccc(-c2ccccc2)cc1 [Example 70] | > 10 | > 30
Cn1nc(NC(=O)N2CCC(O)CC2)cc1C(=O)Nc1cccc(F)c1 [Example 43] | 1 to 10 | > 30
O=S(=O)(c1c(Cl)ccc2c(Nc3cc(F)c(F)c(F)c3)n[nH]c12)N1CCC(O)CC1 [Example 1] | > 10 | > 30
Cn1nc(NC(=O)N2CCC(F)CC2)cc1C(=O)Nc1cc(F)c(F)c(F)c1 [Example 17] | 1 to 10 | < 10
Cn1nc(NC(=O)N2CCC(O)CC2)cc1C(=O)Nc1cc(F)c(Cl)c(F)c1 [Example 36] | > 10 | > 30
COCCNC(=O)Nc1cc(C(=O)Nc2cc(F)c(F)c(F)c2)n(C)n1 [Example 24] | 1 to 10 | > 30
CCN(C)C(=O)Nc1cc(C(=O)Nc2cc(F)c(F)c(F)c2)n(C)n1 [Example 40] | 1 to 10 | < 10
CN(C(=O)N1CCC(O)CC1)c1cc(C(=O)Nc2cc(F)c(F)c(F)c2)n(C)n1 [Example 58] | > 10 | > 30
Cn1nc(NC(=O)N2CCC(O)CC2)cc1C(=O)Nc1cccnc1 [Example 37] | > 10 | > 30
Cn1nc(NC(=O)N2CCC(O)CC2)c(Cl)c1C(=O)Nc1cc(F)c(F)c(F)c1 [Example 11] | 1 to 10 | > 30
Cn1nc(NC(=O)N2CCC(O)CC2)cc1C(=O)Nc1ccc(F)cc1Cl [Example 59] | > 10 | > 30
Cc1cc(NC(=O)c2cc(NC(=O)N3CCC(O)CC3)nn2C)ccc1F [Example 54] | < 1 | < 10
COC(=O)c1ccc(NC(=O)c2cc(NC(=O)N3CCC(O)CC3)nn2C)cc1 [Example 72] | > 10 | > 30
O=S(=O)(c1cc2oc(Nc3cc(F)c(F)c(F)c3)nc2cc1Cl)N1CCC(O)CC1 [Example 4] | 1 to 10 | < 10
Cn1nc(NC(=O)N2CCC(O)CC2)cc1C(=O)Nc1cc(F)cc(F)c1 [Example 46] | > 10 | 10 to 30
